Measurements published in patent publication US9315496B2, “Benzopyrone derivative and use thereof” (HUAZHONG UNIVERSITY OF SCIENCE & TECHNOLOGY, priority 2011, dated 2016).
Structures can show the parent of a compound that is named as a salt. Where two headings read alike, the source gives them in different places.

Key:
5-HT1A receptor = target: T1, 5-HT1A receptor (Rattus norvegicus, UniProt P19327); test: 5HT1A receptor binding assay (3H-8-OH-DPAT, rat brain striatum membrane); conditions: test compound final concentration 10^−5 M; 3H-8-OH-DPAT; rat brain striatum membrane
T1 sequence (P19327 1-422): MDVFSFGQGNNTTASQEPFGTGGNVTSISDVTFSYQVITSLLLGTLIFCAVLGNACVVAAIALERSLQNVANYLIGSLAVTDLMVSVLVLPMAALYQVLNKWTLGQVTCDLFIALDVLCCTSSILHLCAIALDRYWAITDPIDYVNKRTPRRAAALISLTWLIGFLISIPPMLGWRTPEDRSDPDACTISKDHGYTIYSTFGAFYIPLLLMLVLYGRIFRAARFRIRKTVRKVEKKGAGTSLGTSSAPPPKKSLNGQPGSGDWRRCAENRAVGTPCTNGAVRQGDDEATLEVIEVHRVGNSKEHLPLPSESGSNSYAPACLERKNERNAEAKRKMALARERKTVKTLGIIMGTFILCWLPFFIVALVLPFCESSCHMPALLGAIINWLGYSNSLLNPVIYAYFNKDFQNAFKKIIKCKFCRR
Experimental: Incubation at 37° C. was conducted for 10 min, the weight of the tubes were adjusted using a balance after incubation. […] Centrifugation was conducted and repeated 3 times.

5-HT2A receptor = 5-HT2A receptor (Rattus norvegicus, UniProt P14842); test: 5HT2A receptor binding assay ([3H]-Ketanserin, rat brain striatum membrane); conditions: read-out: 5HT2A inhibition %
dopamine D2 receptor = dopamine D2 receptor (Rattus norvegicus, UniProt P61169); test: D2 receptor binding assay (3H-Spiperone, rat brain striatum membrane); conditions: read-out: D2 inhibition %
Experimental: Rats were sacrificed by cervical dislocation on ice. Brain striatum was rapidly taken, and 2 brain striatums were combined into a centrifuge tube, to which 3 ml of buffer (0.05 M Tris-HCl buffer, containing NaCl 120 mM, KCl 5 mM, MgCl2 1 mM, CaCl2 1 mM) was added, homogenization was conducted for 3-4 s at level 4 for four times, and then 5 ml of buffer was then added. The weight of the homogenized tubes were adjusted using a balance, and centrifugation was conducted at 12000 r, 4° C. for 20 min. The supernatant was discarded, and 3 ml of buffer was added (0.05 M Tris-HCl buffer, containing NaCl 120 mM, KCl 5 mM, MgCl2 1 mM, CaCl2 1 mM). Vortex mixer was used for blending, and then 5 ml of buffer was added (0.05 M Tris-HCl buffer, containing NaCl 120 mM, KCl 5 mM, MgCl2 1 mM, CaCl2 1 mM). Centrifugation was conducted (repeated 3 times). After the centrifugations, the supernatant was discarded, and the pellets were stored at −80° C. for future use.
Beckman LS-6500 Multi-function Liquid Scintillation Counter was used.
(1) The prepared membrane was first applied with appropriate amount of homogenized liquid, and homogenizer was used for evenly dispersing. 15 tubes were mixed into a 100 ml container, and appropriate amount of homogenized liquid was added to give 50 ml of membrane suspension, which was reserved for future use.
(2) 100 μL of membrane preparation and 100 μL of buffer were added into each reaction tube.
(3) 100 μL of homogenized liquid was added into the total binding tube (TB), 100 μL of Butaclamol (final concentration 10^−5 M) was added into the non-specific binding tube (NB), and 100 μL of the test compound (final concentration 10^−5 M) was added into the specific binding tube (SB) for each compound.
(5) Each of the reaction tubes was incubated at 37° C. for 20 min. After the reaction was completed, the bound ligands were rapidly filtered under reduced pressure, and the ice-chilled assay buffer was used for adequate washing. The filter was taken out and put into a 3 ml scintillation vial, and 2 ml of toluene scintillation solution was added and blended.
(6) The scintillation vials were put into Liquid Scintillation Counter for counting. Inhibitory rate(1%)=(Total binding tube cpm−compound cpm)/(Total binding tube cpm−non-specific binding tube cpm)×100%
Each assay for the compounds was conducted in duplicate.

[1] = test compound final concentration 10^−5 M, [3H]-Ketanserin, rat brain striatum membrane

Sequence of dopamine D2 receptor (P61169 whole entry): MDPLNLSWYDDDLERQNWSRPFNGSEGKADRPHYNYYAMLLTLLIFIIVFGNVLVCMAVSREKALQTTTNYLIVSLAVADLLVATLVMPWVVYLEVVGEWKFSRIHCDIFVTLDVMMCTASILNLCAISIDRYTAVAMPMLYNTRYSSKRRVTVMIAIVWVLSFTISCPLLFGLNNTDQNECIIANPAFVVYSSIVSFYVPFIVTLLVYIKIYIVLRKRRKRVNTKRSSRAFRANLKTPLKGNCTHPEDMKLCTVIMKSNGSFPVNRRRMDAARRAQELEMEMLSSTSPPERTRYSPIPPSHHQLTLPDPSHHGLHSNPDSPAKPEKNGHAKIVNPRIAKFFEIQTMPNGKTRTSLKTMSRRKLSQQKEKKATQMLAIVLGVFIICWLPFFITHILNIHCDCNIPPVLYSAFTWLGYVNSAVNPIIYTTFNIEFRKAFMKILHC
Sequence of 5-HT2A receptor (P14842 whole entry): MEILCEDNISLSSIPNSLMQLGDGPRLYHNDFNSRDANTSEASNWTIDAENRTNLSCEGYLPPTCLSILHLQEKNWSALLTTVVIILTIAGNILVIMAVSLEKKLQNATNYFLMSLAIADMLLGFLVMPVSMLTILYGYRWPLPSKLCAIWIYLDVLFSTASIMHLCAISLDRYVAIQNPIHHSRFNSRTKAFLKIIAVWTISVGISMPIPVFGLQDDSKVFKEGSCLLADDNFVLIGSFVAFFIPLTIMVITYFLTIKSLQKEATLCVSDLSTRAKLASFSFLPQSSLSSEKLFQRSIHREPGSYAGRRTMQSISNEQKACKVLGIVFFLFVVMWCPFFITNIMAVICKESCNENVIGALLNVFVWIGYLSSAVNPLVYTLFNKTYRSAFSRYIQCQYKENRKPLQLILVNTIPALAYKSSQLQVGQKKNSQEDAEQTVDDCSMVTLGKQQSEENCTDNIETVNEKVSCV

| Structure (SMILES) | melting point | inhibition at 10 µM (5-HT1A receptor) | inhibition at 10 µM (5-HT2A receptor; [1]) | inhibition at 10 µM (dopamine D2 receptor) | inhibition at 10 µM (5-HT2A receptor) |
| --- | --- | --- | --- | --- | --- |
| O=c1ccc2ccc(OCCCCN3CCN(c4nsc5ccccc45)CC3)cc2o1 (as salt: hydrochloride) [Compound 2, 7-(4-(4-(3-(1,2-benzisothiazole)-1-piperazinyl)-n-butoxy))-2H-benzopyran-2-one] | 103 to 105 °C |  |  |  |  |
| O=c1cc(-c2ccccc2)c2ccc(OCCCN3CCN(c4nsc5ccccc45)CC3)cc2o1 (as salt: hydrochloride) [Compound 12, 7-(3-(4-(3-(1,2-benzisothiazole)-1-piperazinyl)-n-propoxy))-4-phenyl-2H-benzopyran-2-one] | 96 to 98 °C |  |  |  |  |
| O=c1cc(C(F)(F)F)c2ccc(OCCCN3CCN(c4nsc5ccccc45)CC3)cc2o1 (as salt: hydrochloride) [Compound 16, 7-(3-(4-(3-(1,2-benzisothiazole)-1-piperazinyl)-n-propoxy))-4-(trifluoromethyl)-2H-benzopyran-2-one] | 103 to 105 °C |  |  |  |  |
| O=c1ccc2ccc(OCCCCN3CCN(c4nsc5ccccc45)CC3)cc2o1 [Compound 2, 7-(4-(4-(3-(1,2-benzisothiazole)-1-piperazinyl)-n-butoxy))-2H-benzopyran-2-one] |  | 99.4% | 103% | 80.6% |  |
| O=c1ccc2ccc(OCCCN3CCC(c4noc5cc(F)ccc45)CC3)cc2o1 [Compound 3, 7-(3-(4-(3-(6-fluoro-benzisoxazole)-1-piperidyl)-n-propoxy))-2H-benzopyran-2-one] | 128 to 130 °C | 42.3% | 101% | 106% |  |
| O=c1ccc2ccc(OCCCN3CCN(c4nsc5ccccc45)CC3)cc2o1 [Compound 4, 7-(3-(4-(3-(1,2-benzisothiazole)-1-piperazinyl)-n-propoxy))-2H-benzopyran-2-one] | 91 to 93 °C | 101% | 59.1% | 49.2% |  |
| Cc1cc(=O)oc2cc(OCCCCN3CCN(c4nsc5ccccc45)CC3)ccc12 [Compound 5, 7-(4-(4-(3-(1,2-benzisothiazole)-1-piperazinyl)-n-butoxy))-4-methyl-2H-benzopyran-2-one] | 110 to 112 °C | 114% | 104% | 88.5% |  |
| Cc1cc(=O)oc2cc(OCCCN3CCN(c4nsc5ccccc45)CC3)ccc12 [Compound 8, 7-(3-(4-(3-(1,2-benzisothiazole)-1-piperazinyl)-n-propoxy))-4-methyl-2H-benzopyran-2-one] | 113 to 115 °C | 98.5% | 88.6% | 73.8% |  |
| Cc1cc(=O)oc2cc(OCCCCCN3CCC(c4noc5cc(F)ccc45)CC3)ccc12 [Compound 9, 7-(5-(4-(3-(6-fluoro-benzisoxazole)-1-piperidyl)-n-pentyloxy))-4-methyl-2H-benzopyran-2-one] | 119 to 121 °C | 88.8% | 120% | 102% |  |
| Cc1cc(=O)oc2cc(OC/C=C/CN3CCC(c4noc5cc(F)ccc45)CC3)ccc12 [Compound 10, (E)-7-(4-(4-(3-(6-fluoro-benzisoxazole)-3-piperidyl)-but-2-enyloxy))-4-methyl-2H-benzopyran-2-one] | 129 to 130 °C | 102% | 109% | 111% |  |
| O=c1cc(-c2ccccc2)c2ccc(OCCCN3CCC(c4noc5cc(F)ccc45)CC3)cc2o1 [Compound 11, 7-(3-(4-(3-(6-fluoro-benzisoxazole)-1-piperidyl)-n-propoxy))-4-phenyl-2H-benzopyran-2-one] | 185 to 187 °C | 35.3% | 57.8% | 18.5% |  |
| O=c1cc(-c2ccccc2)c2ccc(OCCCCN3CCC(c4noc5cc(F)ccc45)CC3)cc2o1 [Compound 13, 7-(4-(4-(3-(6-fluoro-benzisoxazole)-1-piperidyl)-n-butoxy))-4-phenyl-2H-benzopyran-2-one] |  | 111% |  | 65.2% | 67.2% |
| O=c1cc(-c2ccccc2)c2ccc(OCCCCN3CCN(c4nsc5ccccc45)CC3)cc2o1 [Compound 14, 7-(4-(4-(3-(1,2-benzisothiazole)-1-piperazinyl)-n-butoxy))-4-phenyl-2H-benzopyran-2-one] | 116 to 118 °C | 95.5% | 83.4% | 68.6% |  |
| O=c1cc(C(F)(F)F)c2ccc(OCCCN3CCC(c4noc5cc(F)ccc45)CC3)cc2o1 [Compound 15, 7-(3-(4-(3-(6-fluoro-benzisoxazole)-1-piperidyl)-n-propoxy))-4-(trifluoromethyl)-2H-benzopyran-2-one] | 146 to 148 °C | 107% | 83.3% | 94.6% |  |
| O=c1cc(C(F)(F)F)c2ccc(OCCCN3CCN(c4nsc5ccccc45)CC3)cc2o1 [Compound 16, 7-(3-(4-(3-(1,2-benzisothiazole)-1-piperazinyl)-n-propoxy))-4-(trifluoromethyl)-2H-benzopyran-2-one] |  | 104% | 96.3% | 115% |  |
| O=c1cc(C(F)(F)F)c2ccc(OCCCCN3CCC(c4noc5cc(F)ccc45)CC3)cc2o1 [Compound 17, 7-(4-(4-(3-(6-fluoro-benzisoxazole)-1-piperidyl)-n-butoxy))-4-(trifluoromethyl)-2H-benzopyran-2-one] | 125 to 127 °C | 101% | 95.9% | 92.3% |  |
| Cc1cc(=O)oc2c(Cl)c(OCCCCN3CCN(c4nsc5ccccc45)CC3)ccc12 [Compound 20, 7-(4-(4-(3-(1,2-benzisothiazole)-1-piperazinyl)-n-butoxy))-4-methyl-8-chloro-2H-benzopyran-2-one] | 133 to 135 °C | 92.8% | 15.5% | 9.7% |  |
| Cc1cc(=O)oc2c(Cl)c(OCCCN3CCC(c4noc5cc(F)ccc45)CC3)ccc12 [Compound 21, 7-(3-(4-(3-(6-fluoro-benzisoxazole)-1-piperidyl)-n-propoxy))-4-methyl-8-chloro-2H-benzopyran-2-one] | 185 to 187 °C | 101% | 90.1% | 32.9% |  |
| Cc1cc(=O)oc2c(C)c(OCCCCN3CCN(c4nsc5ccccc45)CC3)ccc12 [Compound 24, 7-(4-(4-(3-(1,2-benzisothiazole)-1-piperazinyl)-n-butoxy))-4-8-dimethyl-2H-benzopyran-2-one] | 106 to 108 °C | 105% | 97.4% | 98.1% |  |
| CCCc1cc(=O)oc2cc(OCCCCN3CCC(c4noc5cc(F)ccc45)CC3)ccc12 [Compound 25, 7-(4-(4-(3-(6-fluoro-benzisoxazole)-1-piperidyl)-n-butoxy))-4-n-propyl-2H-benzopyran-2-one] | 139 to 141 °C | 84.5% | 40.2% | 70.7% |  |
| CCCc1cc(=O)oc2cc(OCCCCN3CCN(c4nsc5ccccc45)CC3)ccc12 [Compound 26, 7-(4-(4-(3-(1,2-benzisothiazole)-1-piperazinyl)-n-butoxy))-4-n-propyl-2H-benzopyran-2-one] |  | 99.7% | 129% | 61.9% |  |
| CCc1cc(=O)oc2cc(OCCCCN3CCC(c4noc5cc(F)ccc45)CC3)ccc12 [Compound 27, 7-(4-(4-(3-(6-fluoro-benzisoxazole)-1-piperidyl)-n-butoxy))-4-ethyl-2H-benzopyran-2-one] |  | 65.7% | 124% | 84% |  |
| CCc1cc(=O)oc2cc(OCCCCN3CCN(c4nsc5ccccc45)CC3)ccc12 [Compound 28, 7-(4-(4-(3-(1,2-benzisothiazole)-1-piperazinyl)-n-butoxy))-4-ethyl-2H-benzopyran-2-one] | 110 to 112 °C | 11% | 56.1% | 58.8% |  |
| Cc1c(C)c2ccc(OCCCCN3CCC(c4noc5cc(F)ccc45)CC3)cc2oc1=O [Compound 29, 7-(4-(4-(3-(6-fluoro-benzisoxazole)-1-piperidyl)-n-butoxy))-3,4-dimethyl-2H-benzopyran-2-one] | 106 to 108 °C | 97.1% | 24.7% | 43.2% |  |
| O=c1cc(CO)c2ccc(OCCCN3CCC(c4noc5cc(F)ccc45)CC3)cc2o1 [Compound 30, 7-(3-(4-(3-(6-fluoro-benzisoxazole)-1-piperidyl)-n-propoxy))-4-hydroxymethyl-2H-benzopyran-2-one] | 144 to 146 °C | 82.8% | 98.5% | 20.3% |  |
| O=C1CC(c2ccccc2)c2ccc(OCCCCN3CCC(c4noc5cc(F)ccc45)CC3)cc2O1 (centres unmarked) [Compound 34] |  | 5.9% | 115% | 120% |  |
